Experimental data as given in US8778919B2, “Cyclic anilino—pyridinotriazines” (Janssen Pharmaceutica NV, priority 2005, dated 2014).

What was measured:
Type in all cases: biochemical
CDK1/cyclinB (h) = CDK1/cyclinB (h) (Homo sapiens, UniProt P06493); assay: Kinase profiling C3.2 CDK1/cyclinB human; conditions: test concentration of 10^−6 M
Description: (§1) The in vitro inhibition of a panel of kinases was assessed using either the glass-fiber filter technology as described by Davies, S. P. et al., Biochem J. (2000), 351; p. 95-105. In the glass-fiber filter technology the activity of the kinase of interest is measured using an appropriate substrate that is incubated with the aforementioned kinase protein in the presence of (^33P) radiolabeled ATP. (^33P) Phosporylation of the substrate is subsequently measured as radioactivity bound on a glassfiber-filter.
(§2) All kinases are pre-diluted to a 10× working concentration prior to addition into the assay. The composition of the dilution buffer for each kinase is detailed below.
(§3) All substrates are dissolved and diluted to working stocks in de-ionised water, apart from histone H1 that is stored in 10× working stock in 20 mM MOPS pH 7.4.
(§4) In a final reaction volume of 25 μl, CDK1/cyclinB (h) (5-10 mU) is incubated with 8 mM MOPS pH 7.0, 0.2 mM EDTA, 0.1 mg/ml histone H1, 10 mM MgAcetate and [γ-^33P-ATP] (specific activity approx. 500 cpm/pmol, concentration as required). The reaction is initiated by the addition of the MgATP mix. After incubation for 40 minutes at room temperature, the reaction is stopped by the addition of 5 μl of a 3% phosphoric acid solution. 10 μl of the reaction is then spotted onto a P30 filtermat and washed three times for 5 minutes in 75 mM phosphoric acid and once in methanol prior to drying and scintillation counting.

CDK2/cyclinE (h) = CDK2/cyclinE (h) (Homo sapiens, UniProt P24941); assay: Kinase profiling C3.4 CDK2/cyclinE human; conditions: test concentration of 10^−6 M
Description: as §1, §2, §3
as §4, with “CDK2/cyclinE” for “CDK1/cyclinB”

CDK6/cyclinD3 human = CDK6/cyclinD3 human (Homo sapiens, UniProt Q00534); assay: Kinase profiling C3.7 CDK6/cyclinD3 human; conditions: CDK6/cyclinD3, test concentration of 10^−6 M
Description: as §1, §2, §3
as §4, with “CDK6/cyclinD3 human” for “CDK1/cyclinB (h)”

CDK3/cyclinE (h) = CDK3/cyclinE (h) (Homo sapiens, UniProt Q00526); assay: Kinase profiling C3.5 CDK3/cyclinE human; conditions: test concentration of 10^−6 M
Description: as §1, §2, §3
as §4, with “CDK3/cyclinE” for “CDK1/cyclinB”

GSK-3β = GSK-3β (Homo sapiens, UniProt P49841); assay: GSK-3 kinase assay (C1), GSK-3β; conditions: 1 μM ATP; for IC50: read-out: C1 Score β
Description: (§5) In vitro GSK-3 assays were performed at room temperature in a 100 μl reaction volume of 25 mM Tris (pH 7.4) containing 10 mM MgCl2.6H2O, 1 mM DTT, 0.1 mg/ml BSA, 5% glycerol, 5.7 ng/μl GSK-3β or 0.25 ng/μl GSK-3α, 5 μM biotinylated CREB peptide, 1 μM ATP, 0.85 μCi/ml ^33P-ATP and a suitable amount of a test compound. After one hour, the reaction was terminated by adding 70 μl of Stop mix (0.1 mM ATP, 5 mg/ml streptavidin coated PVT SPA beads, pH 11.0). The beads were allowed to settle overnight and the radioactivity attached to the beads was counted in a microtiter plate scintillation counter and compared with the results obtained in a control experiment (without the presence of a test compound) in order to determine the percentage of GSK-3 inhibition. The IC50 value, i.e. the concentration (M) of the test compound at which 50% of GSK-3 is inhibited, was calculated from the dose response curve obtained by performing the above-described GSK-3 assay in the presence of different amounts of the test compound. Score 1=pIC50 value<6, Score 2=pIC50 value from 6-7, Score 3=pIC50 value from 7-8, Score 4=pIC50 value>8.

CDK2/cyclinA (h) = CDK2/cyclinA (h) (Homo sapiens, UniProt P24941); assay: Kinase profiling C3.3 CDK2/cyclinA human; conditions: test concentration of 10^−6 M
Description: as §1, §2, §3
as §4, with “CDK2/cyclinA” for “CDK1/cyclinB”

CDK7/cyclinH/MAT1 (h) = CDK7/cyclinH/MAT1 (h) (Homo sapiens, UniProt P50613); assay: Kinase profiling C3.8 CDK7/cyclinH/MAT1 human; conditions: CDK7/cyclinH/MAT1, test concentration of 10^−6 M
Description: as §1, §2, §3
as §4, with “CDK7/cyclinH/MAT1” for “CDK1/cyclinB”, “500 μM peptide,” for “0.1 mg/ml histone H1,”

CDK5/p35 human = CDK5/p35 human (Homo sapiens, UniProt Q00535); assay: Kinase profiling C3.6 CDK5/p35 human; conditions: CDK5/p35, test concentration of 10^−6 M
Description: as §1, §2, §3
as §4, with “CDK5/p35 human” for “CDK1/cyclinB (h)”

GSK-3α = GSK-3α (Homo sapiens, UniProt P49840); assay: GSK-3 kinase assay (C1), GSK-3α; conditions: 1 μM ATP, read-out: C1 Score α
Description: as §5

CDK5/p35 human, sequence (Q00535 whole entry): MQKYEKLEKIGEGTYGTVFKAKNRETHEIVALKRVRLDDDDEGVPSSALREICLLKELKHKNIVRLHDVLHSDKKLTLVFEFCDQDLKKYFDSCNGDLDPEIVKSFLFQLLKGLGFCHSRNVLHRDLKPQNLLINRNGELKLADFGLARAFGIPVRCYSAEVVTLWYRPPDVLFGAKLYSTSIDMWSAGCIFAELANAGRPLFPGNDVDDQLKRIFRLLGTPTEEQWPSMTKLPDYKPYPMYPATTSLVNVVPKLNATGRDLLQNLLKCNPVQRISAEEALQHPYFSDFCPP
CDK5/p35 human, sequence (Q15078 whole entry partner): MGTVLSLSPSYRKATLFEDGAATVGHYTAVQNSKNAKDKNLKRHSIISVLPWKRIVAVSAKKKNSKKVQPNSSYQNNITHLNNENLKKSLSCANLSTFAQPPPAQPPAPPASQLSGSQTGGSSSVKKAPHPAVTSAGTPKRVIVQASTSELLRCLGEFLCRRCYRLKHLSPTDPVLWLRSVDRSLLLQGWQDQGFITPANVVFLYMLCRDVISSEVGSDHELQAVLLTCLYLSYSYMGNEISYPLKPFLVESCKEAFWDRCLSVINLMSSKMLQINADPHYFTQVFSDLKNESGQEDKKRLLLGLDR
CDK7/cyclinH/MAT1 (h), sequence (P50613 whole entry): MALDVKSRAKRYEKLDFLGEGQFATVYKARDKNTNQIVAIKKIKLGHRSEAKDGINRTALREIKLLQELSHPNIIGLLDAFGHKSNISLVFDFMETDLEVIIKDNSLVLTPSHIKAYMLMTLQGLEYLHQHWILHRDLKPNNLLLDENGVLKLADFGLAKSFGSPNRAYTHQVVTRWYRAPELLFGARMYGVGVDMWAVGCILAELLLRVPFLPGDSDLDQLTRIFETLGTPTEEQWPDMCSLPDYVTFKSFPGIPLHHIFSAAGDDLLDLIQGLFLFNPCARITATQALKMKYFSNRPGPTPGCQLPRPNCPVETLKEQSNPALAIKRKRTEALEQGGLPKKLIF
CDK7/cyclinH/MAT1 (h), sequence (P51946 whole entry partner): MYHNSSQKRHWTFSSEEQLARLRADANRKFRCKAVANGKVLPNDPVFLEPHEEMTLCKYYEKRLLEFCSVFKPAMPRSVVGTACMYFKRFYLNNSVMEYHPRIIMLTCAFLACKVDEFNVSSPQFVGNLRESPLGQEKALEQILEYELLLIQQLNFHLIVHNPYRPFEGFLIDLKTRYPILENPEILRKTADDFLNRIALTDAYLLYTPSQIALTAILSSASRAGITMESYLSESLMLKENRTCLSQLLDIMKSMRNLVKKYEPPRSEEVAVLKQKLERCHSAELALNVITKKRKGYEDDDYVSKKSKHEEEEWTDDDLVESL
CDK7/cyclinH/MAT1 (h), sequence (P51948 whole entry partner): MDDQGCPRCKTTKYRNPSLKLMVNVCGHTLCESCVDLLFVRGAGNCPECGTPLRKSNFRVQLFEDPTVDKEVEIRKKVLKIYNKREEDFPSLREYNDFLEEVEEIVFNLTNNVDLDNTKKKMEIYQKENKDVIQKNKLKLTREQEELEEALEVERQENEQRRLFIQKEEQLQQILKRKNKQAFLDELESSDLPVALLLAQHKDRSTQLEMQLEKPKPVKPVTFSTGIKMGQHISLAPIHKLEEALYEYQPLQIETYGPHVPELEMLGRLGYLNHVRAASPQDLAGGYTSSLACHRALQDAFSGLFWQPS
GSK-3α, sequence (P49840 whole entry, species assumed): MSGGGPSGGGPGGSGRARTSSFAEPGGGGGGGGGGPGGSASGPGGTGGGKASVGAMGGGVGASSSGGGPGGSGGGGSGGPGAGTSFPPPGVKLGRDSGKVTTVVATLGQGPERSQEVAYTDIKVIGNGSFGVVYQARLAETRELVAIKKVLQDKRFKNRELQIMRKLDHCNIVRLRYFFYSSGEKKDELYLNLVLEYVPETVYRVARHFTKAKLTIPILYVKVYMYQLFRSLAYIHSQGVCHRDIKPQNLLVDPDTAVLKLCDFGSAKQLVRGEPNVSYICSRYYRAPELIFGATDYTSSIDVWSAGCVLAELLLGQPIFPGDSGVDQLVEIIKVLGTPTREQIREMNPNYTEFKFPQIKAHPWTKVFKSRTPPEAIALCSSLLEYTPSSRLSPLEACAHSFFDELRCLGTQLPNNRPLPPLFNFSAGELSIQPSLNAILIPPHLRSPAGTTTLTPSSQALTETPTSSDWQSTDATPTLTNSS
CDK1/cyclinB (h), sequence (P06493 whole entry): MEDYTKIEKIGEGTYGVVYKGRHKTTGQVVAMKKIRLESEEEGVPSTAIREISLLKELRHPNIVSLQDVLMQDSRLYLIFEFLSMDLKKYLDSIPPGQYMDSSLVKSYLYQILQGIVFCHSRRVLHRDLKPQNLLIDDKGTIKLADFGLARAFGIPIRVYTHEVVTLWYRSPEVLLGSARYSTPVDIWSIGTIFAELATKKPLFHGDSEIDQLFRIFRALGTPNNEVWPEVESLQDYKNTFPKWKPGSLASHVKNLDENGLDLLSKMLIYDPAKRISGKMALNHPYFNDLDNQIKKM
CDK1/cyclinB (h), sequence (P14635 whole entry partner): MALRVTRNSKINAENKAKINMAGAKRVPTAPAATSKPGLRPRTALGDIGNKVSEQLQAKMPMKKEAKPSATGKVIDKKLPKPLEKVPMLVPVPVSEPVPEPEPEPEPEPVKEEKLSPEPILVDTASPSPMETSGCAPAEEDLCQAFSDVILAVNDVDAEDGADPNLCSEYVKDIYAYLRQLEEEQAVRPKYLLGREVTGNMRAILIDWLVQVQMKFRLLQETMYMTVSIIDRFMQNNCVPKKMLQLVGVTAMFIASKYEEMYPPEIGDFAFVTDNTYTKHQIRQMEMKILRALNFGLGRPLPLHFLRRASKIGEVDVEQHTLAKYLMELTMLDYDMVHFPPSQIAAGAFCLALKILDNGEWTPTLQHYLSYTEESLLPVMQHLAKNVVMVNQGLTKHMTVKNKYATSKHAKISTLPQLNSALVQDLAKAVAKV
GSK-3β, sequence (P49841 whole entry, species assumed): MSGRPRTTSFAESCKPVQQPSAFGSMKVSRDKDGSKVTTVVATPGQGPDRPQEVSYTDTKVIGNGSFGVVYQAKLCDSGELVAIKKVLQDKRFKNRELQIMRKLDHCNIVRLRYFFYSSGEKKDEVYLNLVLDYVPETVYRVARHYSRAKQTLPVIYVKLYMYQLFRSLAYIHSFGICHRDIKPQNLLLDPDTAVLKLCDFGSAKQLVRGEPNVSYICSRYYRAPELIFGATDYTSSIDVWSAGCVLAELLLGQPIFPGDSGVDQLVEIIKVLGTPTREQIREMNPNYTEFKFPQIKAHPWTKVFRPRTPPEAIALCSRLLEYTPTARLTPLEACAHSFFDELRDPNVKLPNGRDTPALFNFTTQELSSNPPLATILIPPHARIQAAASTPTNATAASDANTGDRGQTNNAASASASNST
CDK6/cyclinD3 human, sequence (Q00534 whole entry): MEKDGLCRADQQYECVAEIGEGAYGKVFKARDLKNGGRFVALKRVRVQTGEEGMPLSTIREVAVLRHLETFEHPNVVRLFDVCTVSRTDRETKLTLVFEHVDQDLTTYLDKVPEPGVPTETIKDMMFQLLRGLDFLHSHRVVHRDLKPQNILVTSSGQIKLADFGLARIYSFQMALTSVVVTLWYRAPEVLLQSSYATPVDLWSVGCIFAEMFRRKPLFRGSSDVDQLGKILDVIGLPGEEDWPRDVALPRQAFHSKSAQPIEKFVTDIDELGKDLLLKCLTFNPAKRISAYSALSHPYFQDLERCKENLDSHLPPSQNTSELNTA
CDK6/cyclinD3 human, sequence (P30281 whole entry partner): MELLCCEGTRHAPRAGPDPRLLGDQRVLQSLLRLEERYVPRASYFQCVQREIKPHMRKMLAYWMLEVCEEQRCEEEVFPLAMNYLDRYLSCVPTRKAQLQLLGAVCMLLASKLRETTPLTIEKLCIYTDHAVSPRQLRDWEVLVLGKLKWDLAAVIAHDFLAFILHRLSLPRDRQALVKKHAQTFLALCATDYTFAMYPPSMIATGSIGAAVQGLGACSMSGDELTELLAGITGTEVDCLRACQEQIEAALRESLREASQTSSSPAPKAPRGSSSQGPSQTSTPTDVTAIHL

C3.2 score (CDK1/cyclinB (h)) | C3.4 score (CDK2/cyclinE (h)) | C3.7 score (CDK6/cyclinD3 human) | C3.5 score (CDK3/cyclinE (h)) | IC50 (GSK-3β) | C3.3 score (CDK2/cyclinA (h)) | C3.8 score (CDK7/cyclinH/MAT1 (h)) | C3.6 score (CDK5/p35 human) | IC50 (GSK-3α) | C1 Score β (GSK-3β) | SMILES
4 (Score 4 = >80% inhibition) | 4 (Score 4 = >80% inhibition) | 2 (Score 2 = 30-60% inhibition) | 4 (Score 4 = >80% inhibition) | 10 to 100 nM | 4 (Score 4 = >80% inhibition) | 2 (Score 2 = 30-60% inhibition) | 3 (Score 3 = 60-80% inhibition) | 100 to 1000 nM |  | O=C1CCN2CCN(CC2)Cc2cccc(c2)Nc2ncnc(n2)-c2ccnc(c2)NCCN1 [Compound 19]
3 (Score 3 = 60-80% inhibition) | 4 (Score 4 = >80% inhibition) | 1 (Score 1 = 10-30% inhibition) | 3 (Score 3 = 60-80% inhibition) | 100 to 1000 nM | 4 (Score 4 = >80% inhibition) | 2 (Score 2 = 30-60% inhibition) | 2 (Score 2 = 30-60% inhibition) | 100 to 1000 nM |  | O=C1NCCNc2cc(ccn2)-c2ncnc(n2)Nc2cccc(c2)CN2CCC[C@H]12 [Compound 18]
3 (Score 3 = 60-80% inhibition) | 4 (Score 4 = >80% inhibition) | 1 (Score 1 = 10-30% inhibition) | 4 (Score 4 = >80% inhibition) |  | 4 (Score 4 = >80% inhibition) | 2 (Score 2 = 30-60% inhibition) | 3 (Score 3 = 60-80% inhibition) | 100 to 1000 nM | 3 (Score 3=pIC50 value from 7-8) | CN1CCC(=O)NCCNc2cc(ccn2)-c2ncnc(n2)Nc2cccc(c2)C1 [Compound 20]
2 (Score 2 = 30-60% inhibition) | 4 (Score 4 = >80% inhibition) | 1 (Score 1 = 10-30% inhibition) | 3 (Score 3 = 60-80% inhibition) | 100 to 1000 nM | 3 (Score 3 = 60-80% inhibition) | 1 (Score 1 = 10-30% inhibition) | 2 (Score 2 = 30-60% inhibition) | 100 to 1000 nM |  | CN1Cc2cccc(c2)Nc2ncnc(n2)-c2ccnc(c2)NCCCNC(=O)CCN2CCC1CC2 [Compound 23]
3 (Score 3 = 60-80% inhibition) | 4 (Score 4 = >80% inhibition) | 2 (Score 2 = 30-60% inhibition) | 3 (Score 3 = 60-80% inhibition) | 10 to 100 nM | 4 (Score 4 = >80% inhibition) | 2 (Score 2 = 30-60% inhibition) | 2 (Score 2 = 30-60% inhibition) | 10 to 100 nM |  | O=C1NCCc2cccc(c2)Nc2ncnc(n2)-c2ccnc(c2)CCCN2C[C@H](O)C[C@@H]12 [Compound 25]
3 (Score 3 = 60-80% inhibition) | 3 (Score 3 = 60-80% inhibition) | 1 (Score 1 = 10-30% inhibition) | 4 (Score 4 = >80% inhibition) | > 1000 nM | 2 (Score 2 = 30-60% inhibition) | 1 (Score 1 = 10-30% inhibition) | 4 (Score 4 = >80% inhibition) | > 1000 nM |  | CN1CC(=O)NCCCc2cc(ccn2)-c2ncnc(n2)Nc2cc(Cl)ccc2C1 [Compound 31]
1 (Score 1 = 10-30% inhibition) | 4 (Score 4 = >80% inhibition) | 1 (Score 1 = 10-30% inhibition) | 3 (Score 3 = 60-80% inhibition) | 10 to 100 nM | 3 (Score 3 = 60-80% inhibition) | 2 (Score 2 = 30-60% inhibition) | 2 (Score 2 = 30-60% inhibition) | 10 to 100 nM |  | O=C1NCCc2cccc(c2)Nc2ncnc(n2)-c2ccnc(c2)CCCN2CCCC1C2 (stereo not shown) [Compound 26]
2 (Score 2 = 30-60% inhibition) | 2 (Score 2 = 30-60% inhibition) | 1 (Score 1 = 10-30% inhibition) | 1 (Score 1 = 10-30% inhibition) |  | 3 (Score 3 = 60-80% inhibition) |  | 2 (Score 2 = 30-60% inhibition) | 10 to 100 nM |  | O=C1CN2CCN(CC2)Cc2cccc(c2)Nc2ncnc(n2)-c2cccc(c2)NCCN1 [Compound 58]
4 (Score 4 = >80% inhibition) | 4 (Score 4 = >80% inhibition) | 1 (Score 1 = 10-30% inhibition) | 4 (Score 4 = >80% inhibition) | 100 to 1000 nM | 4 (Score 4 = >80% inhibition) | 2 (Score 2 = 30-60% inhibition) | 3 (Score 3 = 60-80% inhibition) | 100 to 1000 nM |  | O=C1NCCCNc2cc(ccn2)-c2ncnc(n2)Nc2cccc(c2)CN2CCC[C@@H]12 [Compound 21]
